Legend:
[1] = test system: P. mirabilis; assay: MIC determination, broth microdilution in Cation-Adjusted Mueller-Hinton broth (CLSI); assay type: cell-based, Proteus mirabilis; settings: strain Pmir
Procedure: (§1) Determination of MIC values were performed using the reference technique (broth microdilution in Cation-Adjusted Mueller-Hinton broth) according to the CLSI guidelines. Polymyxin B and colistin (Sigma-Aldrich, Saint-Louis) were tested over a range dilution from 0.12 to 128 µg/ml and 5.10^5 CFU/ml of bacteria in each well was used. Following the EUCAST breakpoints (http://www.eucast.org/), strains with a colistin MICs of ≤ 2 µg/ml were categorized as susceptible, although those with MICs of > 2 µg/ml were resistant.
(§2) All experiments were repeated in triplicate.

[2] = test system: K. pneumoniae; assay: as above; assay type: cell-based, Klebsiella pneumoniae; settings: for Colistin resistance: EUCAST breakpoints
Procedure: as §1, §2

[3] = test system: E. aerogenes; assay: as above; assay type: cell-based; settings: strain 6 FR
Procedure: as §1, §2

[4] = test system: C. freundii; assay: as above; assay type: cell-based; settings: for Colistin resistance: EUCAST breakpoints
Procedure: as §1, §2

[5] = test system: E. coli; assay: as above; assay type: cell-based, Escherichia coli; settings: for Colistin resistance: EUCAST breakpoints
Procedure: as §1, §2

[6] = test system: K. pneumoniae; assay: Polymyxin test: colorimetric detection of growth (glucose metabolization, phenol red) in presence of colistin sulphate; assay type: cell-based, Klebsiella pneumoniae; parameters: key: +, yellow; -, orange; settings: colistin sulphate 3.75 mg/L final, visual colour change, up to 4 h at 37°C
Procedure: (§3) Each inoculum was prepared by mixing 1 öse (10 µl) of a fresh culture of the tested bacteria in 5 ml of sterile NaCl 0.85% (at a density of 3 Mac Farland, i.e. about 10^9 CFU/ml).
(§4) 250 ml of reactive medium was prepared by mixing the compounds hereafter: • a broth powder of a non selective growth medium for bacteria, the Cation-Adjusted Mueller-Hinton broth (MHB-CA) : 6.25 g • a colour indicator, the phenol red : 0.0125 g • sterile distilled water 225 ml • sterile D (+)-glucose (10 %) anhydrous (sterilization by filtration) : 25 ml
(§5) The pH of the final reactive medium was adjusted to 6.6 and 6.7 with HCl 1M.
(§6) Colistin or polymyxin B was added or not at the concentration of 5 mg/L in the reactive medium. Standard colistin sulphate and polymyxin B were from Sigma Aldrich (Saint-Louis, France). Those antibiotic molecule powders were kept at 4°C before their use, whereas polymyxin dilutions were kept at -20°C.
(§7) For each strain, two wells of a plastic sterile plate with 96 shaped wells were inoculated in parallel with and without polymyxin (colistin sulphate or polymyxin B) in order to compare their colour change.
Plastic sterile plates were from Sarstedt (Nümbrecht, Germany). The tray may be prepared as follows : • 1. 150 µl of reactive medium colistin free (obtained in 1.) in the first line • 2. 150 µl of reactive medium with 5 mg/l of colistin sulphate in the second line (final concentration = 3.75 mg/l) • 3. 50 µl of NaCl alone in the first column (one well colistin-free and one well with colistin sulphate) (medium control) • 4. 50 µl of the bacterial suspension (obtained in 2.) for the control strains and for every strain in the other column (one well colistin-free and one well with colistin)
After mixing of the bacterial suspension to the reactive medium by pipetting up and down, the final concentration of bacteria was 2.5.10^8 CFU/ml in each well and the final selective concentration of colistin or polymyxin B in the well with polymyxin was 3.75 mg/L.
The results of the tests were recorded at 10 min (checking for no spontaneous colour change in the well) and then every hour for a maximum of 4 hours by visual inspection. No colour change of the well with colistin sulphate or polymyxin B indicated susceptibility to colistin sulphate or polymyxin B and negativity of those tests. On the contrary, a colour change (orange to yellow) indicates the positivity of the test meaning growth capability (related to glucose metabolism) in presence of colistin sulphate or polymyxin B, i.e. resistance to colistin sulphate or polymyxin B.
as §2

[7] = test system: P. mirabilis; assay: as above; assay type: cell-based, Proteus mirabilis; parameters: key: +, yellow; -, orange; settings: strain Pmir; colistin sulphate 3.75 mg/L final; visual colour change, up to 4 h at 37°C
Procedure: as §3, §4, §5, §6, §7
(§8) Plastic sterile plates were from Sarstedt (Nümbrecht, Germany). The tray may be prepared as follows : • 1. […]
(§9) The results of the tests were recorded at 10 min (checking for no spontaneous colour change in the well) and then every hour for a maximum of 4 hours by visual inspection. […]

[8] = test system: S. marcescens; assay: as above; assay type: cell-based, Serratia marcescens; parameters: key: +, yellow; -, orange; settings: strain Smar; colistin sulphate 3.75 mg/L final; visual colour change, up to 4 h at 37°C
Procedure: as §3, §4, §5, §6, §7, §8, §9

In the case of colistin sulphate, the Colistin resistance ([1]; EUCAST breakpoints) is reported as “+ (those with MICs of > 2 µg/ml were resistant)”, the “Colistin MIC” value ([1]; Natural resistance) is reported as >128 µg/mL and the “Colistin MIC” value ([2]; strain 1 FR) is reported as 0.12 µg/mL. For the same substance, the Colistin resistance ([2]; strain 1 FR) was “- (strains with a colistin MICs of ≤ 2 µg/ml were categorized as susceptible)”, the “Colistin MIC” value ([2]; strain 2 FR) was 0.12 µg/mL and the Colistin resistance ([2]; strain 2 FR) was “- (strains with a colistin MICs of ≤ 2 µg/ml were categorized as susceptible)”. The “Colistin MIC” value ([2]; strain 4 FR) was 0.25 µg/mL, the Colistin resistance ([2]; strain 4 FR) was “- (strains with a colistin MICs of ≤ 2 µg/ml were categorized as susceptible)” and the “Colistin MIC” value ([2]; strain 9 FR) was 0.5 µg/mL. The Colistin resistance ([2]; strain 9 FR) was “- (strains with a colistin MICs of ≤ 2 µg/ml were categorized as susceptible)”, the Colistin resistance ([2]; strain 11 FR) was “+ (those with MICs of > 2 µg/ml were resistant)” and the “Colistin MIC” value ([2]; strain 11 FR, resistance mechanism Unknown) was 32 µg/mL. The Colistin resistance ([2]; strain 75b) was “+ (those with MICs of > 2 µg/ml were resistant)”, the “Colistin MIC” value ([2]; strain 75b, PhoP D191Y) was 128 µg/mL and the Colistin resistance ([2]; strain AF1b) was “+ (those with MICs of > 2 µg/ml were resistant)”. For the same substance, the “Colistin MIC” value ([2]; strain AF1b, PmrB T157P) was 16 µg/mL, the Colistin resistance ([2]; strain C23) was “+ (those with MICs of > 2 µg/ml were resistant)” and the “Colistin MIC” value ([2]; strain C23, ΔmgrB) was 128 µg/mL. For the same substance, the Colistin resistance ([2]; strain C25) was “+ (those with MICs of > 2 µg/ml were resistant)”, the “Colistin MIC” value ([2]; strain C25, PmrA G53C) was 64 µg/mL and the Colistin resistance ([2]; strain C26) was “+ (those with MICs of > 2 µg/ml were resistant)”. The “Colistin MIC” value ([2]; strain C26, mgrB gene truncated with IS) was 128 µg/mL, the Colistin resistance ([2]; strain C27) was “+ (those with MICs of > 2 µg/ml were resistant)” and the “Colistin MIC” value ([2]; strain C27, mgrB Δnt23/33 (frameshift)) was >128 µg/mL. For the same substance, the “Colistin MIC” value ([2]; strain C112) was 0.12 µg/mL, the Colistin resistance ([2]; strain C112) was “- (strains with a colistin MICs of ≤ 2 µg/ml were categorized as susceptible)” and the “Colistin MIC” value ([2]; strain C115) was 0.12 µg/mL. For the same substance, the Colistin resistance ([2]; strain C115) was “- (strains with a colistin MICs of ≤ 2 µg/ml were categorized as susceptible)”, the “Colistin MIC” value ([2]; strain C130) was 0.12 µg/mL and the Colistin resistance ([2]; strain C130) was “- (strains with a colistin MICs of ≤ 2 µg/ml were categorized as susceptible)”. For the same substance, the “Colistin MIC” value ([2]; strain C132) was 0.12 µg/mL, the Colistin resistance ([2]; strain C132) was “- (strains with a colistin MICs of ≤ 2 µg/ml were categorized as susceptible)” and the Colistin resistance ([2]; strain T1b) was “+ (those with MICs of > 2 µg/ml were resistant)”. For the same substance, the “Colistin MIC” value ([2]; strain T1b, mgrB gene truncated with IS5-like) was 128 µg/mL, the “Colistin MIC” value [3] was 0.12 µg/mL and the Colistin resistance ([3]; EUCAST breakpoints) was “- (strains with a colistin MICs of ≤ 2 µg/ml were categorized as susceptible)”. The “Colistin MIC” value ([4]; strain 8 FR) was 0.12 µg/mL, the Colistin resistance ([4]; strain 8 FR) was “- (strains with a colistin MICs of ≤ 2 µg/ml were categorized as susceptible)” and the “Colistin MIC” value ([4]; strain C136) was 0.12 µg/mL. For the same substance, the Colistin resistance ([4]; strain C136) was “- (strains with a colistin MICs of ≤ 2 µg/ml were categorized as susceptible)”, the “Colistin MIC” value ([5]; strain 3 FR) was 0.12 µg/mL and the Colistin resistance ([5]; strain 3 FR) was “- (strains with a colistin MICs of ≤ 2 µg/ml were categorized as susceptible)”. The “Colistin MIC” value ([5]; strain 5 FR) was 0.25 µg/mL, the Colistin resistance ([5]; strain 5 FR) was “- (strains with a colistin MICs of ≤ 2 µg/ml were categorized as susceptible)” and the “Colistin MIC” value ([5]; strain 10 FR) was 0.25 µg/mL. For the same substance, the Colistin resistance ([5]; strain 10 FR) was “- (strains with a colistin MICs of ≤ 2 µg/ml were categorized as susceptible)”, the Colistin resistance ([5]; strain 27563) was “+ (those with MICs of > 2 µg/ml were resistant)” and the “Colistin MIC” value ([5]; strain 27563, resistance mechanism Unknown) was 16 µg/mL. The Colistin resistance ([5]; strain 27837) was “+ (those with MICs of > 2 µg/ml were resistant)”, the “Colistin MIC” value ([5]; strain 27837, resistance mechanism Unknown) was 16 µg/mL and the Colistin resistance ([5]; strain 27850) was “+ (those with MICs of > 2 µg/ml were resistant)”. For the same substance, the “Colistin MIC” value ([5]; strain 27850, resistance mechanism Unknown) was 16 µg/mL, the Colistin resistance ([5]; strain 27852) was “+ (those with MICs of > 2 µg/ml were resistant)” and the “Colistin MIC” value ([5]; strain 27852, resistance mechanism Unknown) was 8 µg/mL. For the same substance, the Colistin resistance ([5]; strain 30742) was “+ (those with MICs of > 2 µg/ml were resistant)”, the “Colistin MIC” value ([5]; strain 30742, resistance mechanism Unknown) was 8 µg/mL and the “Colistin MIC” value ([5]; strain ATCC 25922) was 0.25 µg/mL. For the same substance, the Colistin resistance ([5]; strain ATCC 25922) was “- (strains with a colistin MICs of ≤ 2 µg/ml were categorized as susceptible)”, the “Colistin MIC” value ([5]; strain C140) was 0.12 µg/mL and the Colistin resistance ([5]; strain C140) was “- (strains with a colistin MICs of ≤ 2 µg/ml were categorized as susceptible)”. The “Colistin MIC” value ([5]; strain Top10) was 0.12 µg/mL, the Colistin resistance ([5]; strain Top10) was “- (strains with a colistin MICs of ≤ 2 µg/ml were categorized as susceptible)” and the “Results of the method of the invention” value ([6]; strain 1 FR) was “-”. For the same substance, the “Results of the method of the invention” value ([6]; strain 2 FR) was “-”, the “Results of the method of the invention” value ([6]; strain 4 FR) was “-” and the “Results of the method of the invention” value ([6]; strain 9 FR) was “-”. The “Results of the method of the invention” value ([6]; strain 11 FR) was “+”, the “Results of the method of the invention” value ([6]; strain 75b) was “+” and the “Results of the method of the invention” value ([6]; strain AF1b) was “+”. The “Results of the method of the invention” value ([6]; strain C23) was “+”, the “Results of the method of the invention” value ([6]; strain C25) was “+” and the “Results of the method of the invention” value ([6]; strain C26) was “+”. The “Results of the method of the invention” value ([6]; strain C27) was “+”, the “Results of the method of the invention” value ([6]; strain C112) was “-” and the “Results of the method of the invention” value ([6]; strain C115) was “-”. For the same substance, the “Results of the method of the invention” value ([6]; strain C130) was “-”, the “Results of the method of the invention” value ([6]; strain C132) was “-” and the “Results of the method of the invention” value ([6]; strain T1b) was “+”. For the same substance, the “Results of the method of the invention” value [7] was “+” and the “Results of the method of the invention” value [8] was “+”.

From patent publication EP3070175A1, “TEST FOR DETERMINING SUSCEPTIBILITY OR RESISTANCE TO POLYMYXINS IN ENTEROBACTERIACEAE” (Université de Fribourg, priority 2015, dated 2016)
